Converted amounts (≈) assume the structure as drawn. Structures can show the parent of a compound that is named as a salt. Where two headings read alike, the source gives them in different places.
Columns and labels:
[1] = system: E. coli NCTC 13353 (CTX-M15, OXA-1); test: Antibacterial activity, MIC by agar dilution (CLSI); format: cell-based; details: Escherichia coli
Method: (§1) The biological activity of representative compounds according to the invention against various bacterial strains was investigated. In a typical study, overnight grown bacterial cultures were diluted appropriately and inoculated on the agar media containing doubling dilutions of the test compounds. Observations for growth or no growth was performed after 16-20 hours of incubation at 35±2° C. in the ambient air. The overall procedure was performed as per Clinical and Laboratory Standards Institute (CLSI) recommendations, (Clinical and Laboratory Standards Institute (CLSI), Performance Standards for Antimicrobial Susceptibility Testing, 20th Informational Supplement, M07-A9, Volume 32, No. 2, 2012). Molten Mueller Hinton Agar (BD, USA) containing serial dilutions of each antibacterial agent were poured on to the plates and allowed to solidify. Appropriate suspensions from the freshly grown cultures were prepared in normal saline so that about 10^4 CFU/spot of the organism was delivered on to the drug containing agar plates using automated multipoint inoculator (Mast, UK). The plates were incubated in Biochemical oxygen demand (BOD) incubator at 37° C. for 18 hours and then examined for growth.
Table 2 details the antibacterial activity of representative compounds according to invention, against various Multi Drug Resistant (MDR) Gram-negative bacterial strains. The strains selected for study included E. coli NCTC 13353 producing CTX-M15 and OXA-1 beta-lactamase enzymes; K. pneumoniae H521 producing KPC, SHV, TEM beta-lactamase enzymes; and K. pneumoniae S48 producing NDM, SHV, TEM beta-lactamase enzymes. The activities are expressed as Minimum Inhibitory Concentrations (MICs) (mcg/ml).

[2] = system: K. pneumoniae H521 (KPC, SHV, TEM); test: as above; format: cell-based; details: Klebsiella pneumoniae
Method: as §1
(§2) The strains selected for study included E. coli NCTC 13353 producing CTX-M15 and OXA-1 beta-lactamase enzymes; K. pneumoniae H521 producing KPC, SHV, TEM beta-lactamase enzymes; and K. pneumoniae S48 producing NDM, SHV, TEM beta-lactamase enzymes. The activities are expressed as Minimum Inhibitory Concentrations (MICs) (mcg/ml).

[3] = target: T1, Class D beta-lactamase, A. baumannii NCTC 13301 (OXA 23) (Acinetobacter baumannii, UniProt Q9L4P2); test: Beta-lactamase enzyme inhibition (nitrocefin, crude enzyme); format: biochemical
T1 construct: preincubated mixture of crude enzyme and the agents; endogenous in cells; host or cells: A. baumannii NCTC 13301
T1 sequence (Q9L4P2 18-273): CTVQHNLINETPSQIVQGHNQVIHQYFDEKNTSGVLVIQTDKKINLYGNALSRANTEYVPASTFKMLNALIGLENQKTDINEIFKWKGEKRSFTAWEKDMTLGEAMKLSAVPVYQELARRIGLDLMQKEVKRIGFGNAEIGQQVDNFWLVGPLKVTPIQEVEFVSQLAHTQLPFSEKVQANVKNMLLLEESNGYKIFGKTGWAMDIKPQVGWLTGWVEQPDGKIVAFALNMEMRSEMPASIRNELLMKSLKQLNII
Method: (§3) Determination of enzyme inhibition activity: Concentration of the inhibitor required to inhibit 50% of enzymatic activity was measured by adding a chromogenic substrate, Nitrocefin (100 uM, 5 min) to the preincubated mixture of crude enzyme and the agents (37° C., 10 min). Absorbance was measured at 485 nm by UV-spectrophotometer. The IC50 was calculated by plotting absorbance against concentration through Sigmoidal dose response curve using Graph Pad software.
(§4) The enzyme inhibition was expressed as IC50.

[4] = target: T2, Class A beta-lactamase, K. pneumoniae ATCC 700603 (SHV 18) (Klebsiella pneumoniae, UniProt P0AD64, E235K/G234A/R39S); test: biochemical
T2 construct: preincubated mixture of crude enzyme and the agents; endogenous in cells; host or cells: K. pneumoniae ATCC 700603
T2 sequence (P0AD64 22-286 R39S/G234A/E235K): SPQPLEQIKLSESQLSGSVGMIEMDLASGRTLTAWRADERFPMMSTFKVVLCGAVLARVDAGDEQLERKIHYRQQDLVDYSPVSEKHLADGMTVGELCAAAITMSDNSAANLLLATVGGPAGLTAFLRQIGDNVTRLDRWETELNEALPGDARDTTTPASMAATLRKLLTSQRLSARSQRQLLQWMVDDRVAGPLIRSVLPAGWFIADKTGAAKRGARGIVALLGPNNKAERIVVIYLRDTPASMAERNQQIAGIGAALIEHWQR
Method: as §3, §4

[5] = system: K. pneomoniae S48 (NDM, SHV, TEM); test: Antibacterial activity, MIC by agar dilution (CLSI); format: cell-based, K. pneumoniae; details: Klebsiella pneumoniae
Method: as §1, §2

[6] = NCTC13353, 18 h, Table 2, E. Coli NCTC 13353 (CTX-M15, OXA-1), read-out: MIC
[7] = 18 h, Table 2, K. pneumoniae H521 (KPC, SHV, TEM), read-out: MIC
[8] = Class D A. baumannii NCTC 13301 (OXA 23), read-out: Beta-lactamase enzyme inhibition IC50
[9] = 18 h, Table 2, K. pneomoniae S48 (NDM, SHV, TEM), read-out: MIC
[10] = NCTC13353, Table 2, E. Coli NCTC 13353 (CTX-M15, OXA-1), read-out: MIC
[11] = Table 2, K. pneumoniae H521 (KPC, SHV, TEM), read-out: MIC
[12] = Table 2, K. pneomoniae S48 (NDM, SHV, TEM), read-out: MIC

With `O=C(CCc1ccccc1)NNC(=O)[C@@H]1CC[C@@H]2CN1C(=O)N2OS(=O)(=O)O` [Example 5] the MIC [1, 6] was 8 mg/L (≈ 19.4 µM), the MIC [2, 7] was > 32 mg/L and the IC50 [3, 8] was 0.6 µM. For the same molecule, the IC50 [4] was 0.009 µM and the MIC [5, 9] was 8 mg/L (≈ 19.4 µM).

In the case of `COc1ccc(CC(=O)NNC(=O)[C@@H]2CC[C@@H]3CN2C(=O)N3OS(=O)(=O)O)cc1` [Example 14, sodium salt of (2S,5R)-sulfuric acid mono-[2-(N′-(4-methoxyphenyl-acetyl)-hydrazinocarbonyl)-7-oxo-1,6-diaza-bicyclo[3.2.1]oct-6-yl]ester], the MIC [1, 6] is reported as 1 mg/L, the MIC [2, 7] is reported as 8 mg/L and the IC50 [3, 8] is reported as 0.105 µM. The MIC [5, 9] was 1 mg/L.

Work on `O=C(Cc1cccc(O)c1)NNC(=O)[C@@H]1CC[C@@H]2CN1C(=O)N2OS(=O)(=O)O` [Example 20, sodium salt of (2S,5R)-sulfuric acid mono-[2-(N′-(3-hydroxyphenyl-acetyl)-hydrazinocarbonyl)-7-oxo-1,6-diaza-bicyclo[3.2.1]oct-6-yl]ester] yielded an MIC ([1]; NCTC13353, 18 h) of 0.5 mg/L, an MIC ([2]; 18 h) of 1 mg/L and an IC50 [3, 8] of 0.249 µM. For the same molecule, the IC50 [4] was 0.012 µM and the MIC ([5]; 18 h) was 0.5 mg/L.

With `O=C(Cc1ccc(O)cc1F)NNC(=O)[C@@H]1CC[C@@H]2CN1C(=O)N2OS(=O)(=O)O` [Example 18, sodium salt of (2S,5R)-sulfuric acid mono-[2-(N′-(2-fluoro-4-hydroxyphenyl-acetyl)-hydrazinocarbonyl)-7-oxo-1,6-diaza-bicyclo[3.2.1]oct-6-yl]ester] the MIC [1, 6] was 0.5 mg/L, the MIC [2, 7] was 2 mg/L and the IC50 [3, 8] was 0.146 µM. It also gave an IC50 [4] of 0.154 µM and an MIC [5, 9] of 0.5 mg/L.

In the case of `CC(C)[C@H](NC(=O)Oc1ccc(CC(=O)NNC(=O)[C@@H]2CC[C@@H]3CN2C(=O)N3OS(=O)(=O)O)cc1)C(=O)OC(C)(C)C` [Example 29, sodium salt of (S)-3-methyl-2-(4-{2-oxo-2-[N′-((2S,5R)-7-oxo-6-sulphooxy-1,6-diaza-bicyclo[3.2.1]-octane-2-carbonyl)-hydrazino]-ethyl}-phenoxycarbonylamino)-butyric acid tert-butyl ester], the MIC ([1]; NCTC13353) is reported as 4 mg/L, the MIC [2] is reported as 16 mg/L and the IC50 [3] is reported as 2.85 µM. The IC50 [4] was 0.327 µM and the MIC [5] was 4 mg/L.

Work on `CNCCOc1cccc(CC(=O)NNC(=O)[C@@H]2CC[C@@H]3CN2C(=O)N3OS(=O)(=O)O)c1` [Example 37, (2S,5R)-sulfuric acid mono-[2-(N′-{2-[3-(2-N-methylamino-ethoxy)-phenyl]-acetyl}-hydrazinocarbonyl)-7-oxo-1,6-diaza-bicyclo[3.2.1]oct-6-yl]ester] yielded an MIC [1, 6] of 0.5 mg/L (≈ 1.06 µM), an MIC [2, 7] of 1 mg/L (≈ 2.12 µM) and an IC50 [3, 8] of 0.938 µM. It also gave an IC50 [4] of 0.036 µM and an MIC [5, 9] of 0.5 mg/L (≈ 1.06 µM).

`CN(C)c1ccc(CC(=O)NNC(=O)[C@@H]2CC[C@@H]3CN2C(=O)N3OS(=O)(=O)O)cc1` [Example 13, sodium salt of (2S,5R)-sulfuric acid mono-[2-(N′-(4-N,N-dimethylaminophenyl-acetyl)-hydrazinocarbonyl)-7-oxo-1,6-diaza-bicyclo[3.2.1]oct-6-yl]ester] was tested, and the MIC [1, 6] was 8 mg/L, the MIC [2, 7] was > 32 mg/L and the IC50 [3, 8] was 0.629 µM. For the same molecule, the IC50 [4] was 0.062 µM and the MIC [5, 9] was 8 mg/L.

Work on `N#Cc1ccc(CC(=O)NNC(=O)[C@@H]2CC[C@@H]3CN2C(=O)N3OS(=O)(=O)O)cc1` [Example 10, sodium salt of (2S,5R)-sulfuric acid mono-[2-(N′-(4-cyanophenyl-acetyl)-hydrazinocarbonyl)-7-oxo-1,6-diaza-bicyclo[3.2.1]oct-6-yl]ester] yielded an MIC [1, 6] of 1 mg/L, an MIC [2, 7] of 4 mg/L and an IC50 [3, 8] of 0.805 µM. For the same molecule, the IC50 [4] was 0.162 µM and the MIC [5, 9] was 1 mg/L.

`CNCCOc1ccccc1CC(=O)NNC(=O)[C@@H]1CC[C@@H]2CN1C(=O)N2OS(=O)(=O)O` [Example 36, (2S,5R)-sulfuric acid mono-[2-(N′-{2-[2-(2-N-methylamino-ethoxy)-phenyl]-acetyl}-hydrazinocarbonyl)-7-oxo-1,6-diaza-bicyclo[3.2.1]oct-6-yl]ester] was tested, and the MIC [1, 6] was 1 mg/L (≈ 2.12 µM), the MIC [2, 7] was 2 mg/L (≈ 4.24 µM) and the IC50 [3, 8] was 2.17 µM. The IC50 [4] was 0.071 µM and the MIC [5, 9] was 1 mg/L (≈ 2.12 µM).

For `O=C(Cc1ccccc1)NNC(=O)[C@@H]1CC[C@@H]2CN1C(=O)N2OS(=O)(=O)O` [Example 4], the MIC ([1]; NCTC13353, 18 h) was 1 mg/L (≈ 2.51 µM), the MIC ([2]; 18 h) was > 32 mg/L and the IC50 [3, 8] was 0.416 µM. It also gave an IC50 [4] of 0.019 µM and an MIC ([5]; 18 h) of 2 mg/L (≈ 5.02 µM).

In the case of `CCOc1ccccc1CC(=O)NNC(=O)[C@@H]1CC[C@@H]2CN1C(=O)N2OS(=O)(=O)O` [Example 15, sodium salt of (2S,5R)-sulfuric acid mono-[2-(N′-(2-ethoxyphenyl-acetyl)-hydrazinocarbonyl)-7-oxo-1,6-diaza-bicyclo[3.2.1]oct-6-yl]ester], the MIC [1, 6] is reported as > 32 mg/L, the MIC [2, 7] is reported as > 32 mg/L and the IC50 [3, 8] is reported as 0.21 µM. The IC50 [4] was 0.049 µM and the MIC [5, 9] was > 32 mg/L.

For `O=C(Cc1ccc(Cl)cc1)NNC(=O)[C@@H]1CC[C@@H]2CN1C(=O)N2OS(=O)(=O)O` [Example 9, sodium salt of (2S,5R)-sulfuric acid mono-[2-(N′-(4-chlorophenyl-acetyl)-hydrazinocarbonyl)-7-oxo-1,6-diaza-bicyclo[3.2.1]oct-6-yl]ester], the MIC ([1]; NCTC13353, 18 h) was 1 mg/L, the MIC ([2]; 18 h) was 4 mg/L and the IC50 [3, 8] was 0.173 µM. For the same molecule, the MIC ([5]; 18 h) was 1 mg/L.

Work on `O=C(Cc1ccccc1O)NNC(=O)[C@@H]1CC[C@@H]2CN1C(=O)N2OS(=O)(=O)O` [Example 19, sodium salt of (2S,5R)-sulfuric acid mono-[2-(N′-(2-hydroxyphenyl-acetyl)-hydrazinocarbonyl)-7-oxo-1,6-diaza-bicyclo[3.2.1]oct-6-yl]ester] yielded an MIC [1, 6] of 1 mg/L, an MIC [2, 7] of 2 mg/L and an IC50 [3, 8] of 0.677 µM. The IC50 [4] was 0.013 µM and the MIC [5, 9] was 2 mg/L.

In the case of `O=C(CCCc1ccccc1)NNC(=O)[C@@H]1CC[C@@H]2CN1C(=O)N2OS(=O)(=O)O` [Example 6, sodium salt of (2S,5R)-sulfuric acid mono-[2-(N′-(4-phenyl-butanoyl)-hydrazinocarbonyl)-7-oxo-1,6-diaza-bicylo[3.2.1]oct-6-yl]ester], the MIC [1, 6] is reported as 16 mg/L, the MIC [2, 7] is reported as > 32 mg/L and the IC50 [3, 8] is reported as 0.207 µM. The MIC [5, 9] was 32 mg/L.

`NC(=O)[C@@H]1CC[C@@H]2CN1C(=O)N2OS(=O)(=O)O` [Avibactam, avibactam, reference compound] was tested, and the IC50 [4] was 0.098 µM.

`CC(C)(C)OC(=O)CC(=O)Oc1ccc(CC(=O)NNC(=O)[C@@H]2CC[C@@H]3CN2C(=O)N3OS(=O)(=O)O)cc1` [Example 26, sodium salt of (2S,5R)-malonic acid tert-butyl ester 4-{2-oxo-2-[N′-(7-oxo-6-sulphooxy-1,6-diaza-bicyclo[3.2.1]octane-2-carbonyl)-hydrazino]ethyl}-phenyl ester] was tested, and the MIC [1, 6] was 2 mg/L, the MIC [2, 7] was 4 mg/L and the IC50 [3, 8] was 0.37 µM. The IC50 [4] was 0.025 µM and the MIC [5, 9] was 2 mg/L.

`O=C(Cc1ccc(O[C@H]2CCNC2)cc1)NNC(=O)[C@@H]1CC[C@@H]2CN1C(=O)N2OS(=O)(=O)O` [Example 64] showed an MIC [1, 10] of 0.5 mg/L (≈ 1.03 µM), an MIC [2, 11] of 1 mg/L (≈ 2.07 µM) and an IC50 [3, 8] of 0.432 µM. For the same molecule, the IC50 [4] was 0.047 µM and the MIC [5, 12] was 0.5 mg/L (≈ 1.03 µM).

Work on `O=C(Cc1ccccn1)NNC(=O)[C@@H]1CC[C@@H]2CN1C(=O)N2OS(=O)(=O)O` [Example 8, Sodium salt of (2S,5R)-Sulfuric acid mono-[2-(N′-(pyridine-2-yl-acetyl)-hydrazinocarbonyl)-7-oxo-1,6-diaza-bicyclo[3.2.1]oct-6-yl] ester] yielded an MIC [1, 10] of 0.5 mg/L, an MIC [2, 11] of 2 mg/L and an IC50 [3, 8] of 0.466 µM. The IC50 [4] was 0.025 µM and the MIC [5, 12] was 0.5 mg/L.

Reference: patent US9822115B2, “Nitrogen containing compounds and their use as antibacterial agents” (WOCKHARDT LIMITED, priority 2014, dated 2017)
